Test results taken from BindingDB's records for doi:10.7270/Q2TD9VTQ (Burnham Center For Chemical Genomics, 2010).

Molecular target: T1, Caspase-1 (Homo sapiens, UniProt P29466)
T1 sequence (P29466 whole entry): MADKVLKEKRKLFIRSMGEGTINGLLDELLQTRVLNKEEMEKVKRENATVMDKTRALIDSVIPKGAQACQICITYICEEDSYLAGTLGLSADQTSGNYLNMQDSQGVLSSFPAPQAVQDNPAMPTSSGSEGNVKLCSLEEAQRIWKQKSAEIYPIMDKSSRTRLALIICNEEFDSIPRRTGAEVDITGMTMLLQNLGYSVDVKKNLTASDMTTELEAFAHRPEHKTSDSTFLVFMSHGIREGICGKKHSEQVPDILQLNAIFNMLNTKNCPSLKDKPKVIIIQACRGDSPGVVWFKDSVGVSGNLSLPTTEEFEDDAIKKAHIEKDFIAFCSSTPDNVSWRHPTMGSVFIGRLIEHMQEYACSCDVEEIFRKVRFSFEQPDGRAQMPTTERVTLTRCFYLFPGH
Assay: CASP1/ASC signal blockers in yeast, IC50, counter-screen for NLRP1 inhibitor project (AID 488863)

| Structure (SMILES) | IC50 |
| --- | --- |
| Oc1cc(Sc2nnnn2-c2ccccc2)c(O)n1-c1cccc(Cl)c1 | 5.13 µM |
| Cc1ccc(-n2c(O)cc(Sc3ccccc3C(=O)O)c2O)cc1 | 20.6 µM |
| COc1ccccc1-n1c(O)c2c(c1O)CC(c1ccccc1)CC2 (stereo not drawn) | > 100 µM |
